Where a SMILES comes first, the peptide text is derived from it.
Columns and labels:
14-3-3σ [1] = molecular target: T1, 14-3-3σ (Homo sapiens, UniProt P31947); test: Ac-peptide competition assay against FITC-peptide (peptide affinity)
T1 sequence (P31947 1-231 limits assumed): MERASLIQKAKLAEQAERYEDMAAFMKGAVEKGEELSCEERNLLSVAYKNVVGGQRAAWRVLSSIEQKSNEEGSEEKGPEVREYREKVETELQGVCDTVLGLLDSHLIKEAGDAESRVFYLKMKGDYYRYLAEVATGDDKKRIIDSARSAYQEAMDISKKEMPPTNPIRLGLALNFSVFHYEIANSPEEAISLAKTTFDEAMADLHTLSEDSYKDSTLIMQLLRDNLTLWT
Description: (§1) 14-3-3σ/phosphopeptide binding curves to determine binding affinities. (A) Protein titration with 14 -3-3σ in
(§2) (B) Competition assay used to determine Ki of
(§3) acetylated FOXO1 11-mer peptide (Ac-FOXO1) for mass spectrometry experiments. Ac-FOXO1 was titrated from high to
(§4) used to determine Ki of acetylated C-RAF 11-mer peptide (Ac-CRAF). (E) Protein titration with 14-3-3σ in presence of 100
(§5) nM FITC-labeled ERα 15-mer peptide determined KD. (F) Competition assay used to determine Ki of acetylated ΕRα 15-me r
(§6) peptide (Ac-ERα). (G) Protein titration with 14-3-3σ in presence of 100 nM FITC-labeled USP8 13-mer peptide determined
(§7) KD. (H) Competition assay used to determine Ki of acetylated USP8 13-mer peptide (Ac-USP8) . ( I) Protein titration with 14 -
(§8) of acetylated SOS1 13 -mer peptide (Ac-SOS1).

14-3-3σ [2] = molecular target: T1, 14-3-3σ; test: 14-3-3σ titration to FITC-labeled phosphopeptide (peptide affinity)
Description: as §1, §2, §3, §4, §5, §6, §7, §8

Row | SMILES | Ki (14-3-3σ [1]) [µM] | Kd (14-3-3σ [2]) [µM]
1 | CC(=O)N[C@@H](CCCNC(=N)N)C(=O)N[C@@H](CCC(N)=O)C(=O)N[C@@H](CCCNC(=N)N)C(=O)N[C@@H](CO)C(=O)N[C@H](C(=O)N[C@@H](COP(=O)(O)O)C(=O)N[C@H](C(=O)N1CCC[C@H]1C(=O)N[C@@H](CC(N)=O)C(=O)N[C@H](C(=O)N[C@@H](Cc1c[nH]cn1)C(N)=O)C(C)C)[C@@H](C)O)[C@@H](C)O [C-RAF, Ac-RQRST{pS}TPNVH-CONH2] (HELM PEPTIDE1{[ac].R.Q.R.S.T.[O=C([C@H](COP(=O)(O)O)N[*:1])[*:2]].T.P.N.V.H.[am]}$$$$V2.0) | 9.5 | 4.64
2 | CC(=O)N[C@@H](CCCNC(=N)N)C(=O)N1CCC[C@H]1C(=O)N[C@@H](CCCNC(=N)N)C(=O)N[C@@H](CO)C(=O)N[C@@H](CS)C(=O)N[C@H](C(=O)N[C@@H](Cc1c[nH]c2ccccc12)C(=O)N1CCC[C@H]1C(=O)N[C@@H](CC(C)C)C(=O)N1CCC[C@H]1C(=O)N[C@@H](CCCNC(=N)N)C(N)=O)[C@@H](C)OP(=O)(O)O [FOXO1, Ac-RPRSC{pT}WPLPR-CONH2] (HELM PEPTIDE1{[ac].R.P.R.S.C.[C[C@@H](OP(=O)(O)O)[C@H](N[*:1])C(=O)[*:2]].W.P.L.P.R.[am]}$$$$V2.0) | 0.396 | –
3 | CC(=O)N1CCC[C@H]1C(=O)N[C@@H](CCCNC(=N)N)C(=O)N[C@@H](CCCNC(=N)N)C(=O)N[C@@H](CCCNC(=N)N)C(=O)N1CCC[C@H]1C(=O)N[C@@H](CCC(=O)O)C(=O)N[C@@H](COP(=O)(O)O)C(=O)N[C@@H](C)C(=O)N1CCC[C@H]1C(=O)N[C@@H](C)C(=O)N[C@@H](CCC(=O)O)C(=O)N[C@@H](CO)C(=O)N[C@@H](CO)C(N)=O [SOS1, Ac-PRRRPE{pS}APAESS-CONH2] (HELM PEPTIDE1{[ac].P.R.R.R.P.E.[O=C([C@H](COP(=O)(O)O)N[*:1])[*:2]].A.P.A.E.S.S.[am]}$$$$V2.0) | 3.66 | 5.06
4 | CC[C@H](C)[C@H](NC(=O)[C@H](CC(=O)O)NC(=O)[C@@H]1CCCN1C(=O)[C@H](CO)NC(=O)[C@H](COP(=O)(O)O)NC(=O)[C@H](Cc1ccc(O)cc1)NC(=O)[C@H](CO)NC(=O)[C@H](CCCNC(=N)N)NC(=O)[C@H](CCCCN)NC(=O)[C@H](CC(C)C)NC(=O)[C@H](CCCCN)NC(C)=O)C(=O)N[C@H](C(=O)N[C@@H](CCC(N)=O)C(N)=O)[C@@H](C)O [USP8, Ac-KLKRSY{pS}SPDITQ-CONH2] (HELM PEPTIDE1{[ac].K.L.K.R.S.Y.[O=C([C@H](COP(=O)(O)O)N[*:1])[*:2]].S.P.D.I.T.Q.[am]}$$$$V2.0) | 14.3 | 3.77

— article PMC10214524, “A Systematic Approach to the Discovery of Protein–Protein Interaction Stabilizers” (ACS Central Science, 2023)
